Assays:
Neuraminidase [1] = molecular target: T1, Neuraminidase (Influenza A virus, UniProt B4URF0); design: species or system H7N1
Neuraminidase [2] = molecular target: T1, Neuraminidase; design: species or system H7N3

T1 sequence (B4URF0 whole entry): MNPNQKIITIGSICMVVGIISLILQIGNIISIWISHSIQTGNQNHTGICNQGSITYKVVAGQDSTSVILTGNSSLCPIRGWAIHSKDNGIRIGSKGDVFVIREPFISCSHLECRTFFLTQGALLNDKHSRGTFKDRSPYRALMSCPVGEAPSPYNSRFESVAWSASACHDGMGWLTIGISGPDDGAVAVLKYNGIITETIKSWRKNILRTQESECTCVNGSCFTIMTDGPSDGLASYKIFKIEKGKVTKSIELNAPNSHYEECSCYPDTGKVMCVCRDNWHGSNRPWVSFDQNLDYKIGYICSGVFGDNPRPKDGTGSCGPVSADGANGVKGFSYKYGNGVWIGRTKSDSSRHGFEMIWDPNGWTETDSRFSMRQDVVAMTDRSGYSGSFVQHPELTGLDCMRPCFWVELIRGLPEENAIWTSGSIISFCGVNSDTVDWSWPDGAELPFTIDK

| Structure (SMILES) | IC50 (Neuraminidase [1]) [nM] | IC50 (Neuraminidase [2]) [nM] |
| --- | --- | --- |
| CCC(CC)O[C@@H]1C=C(C(=O)O)C[C@H](N=[N+]=[N-])[C@H]1NC(C)=O | 84.4 | 2.2 |
| C/C=C/C(=O)N[C@@H]1[C@@H](N=[N+]=[N-])CC(C(=O)O)=C[C@H]1OC(CC)CC | 51600 | 99300 |
| C=CC(=O)N[C@@H]1[C@@H](N)CC(C(=O)O)=C[C@H]1OC(CC)CC | 31.8 | 0.1 |
| C/C=C/C(=O)N[C@@H]1[C@@H](N)CC(C(=O)O)=C[C@H]1OC(CC)CC | 139000 | 4510 |
| C=CC(=O)N[C@@H]1[C@@H](NCC(C)C)CC(C(=O)O)=C[C@H]1OC(CC)CC | 14.6 | 28.1 |

From ChEMBL document CHEMBL1955717, “Synthesis and in vitro study of novel neuraminidase inhibitors against avian influenza virus” (Bioorg Med Chem, 2012)
